Measurements from patent publication US10092596B2, “Tungstate treatment of the dysbiosis associated with gastrointestinal inflammation” (THE REGENTS OF THE UNIVERSITY OF CALIFORNIA, priority 2013, dated 2018).
Read-outs that look alike come from different tables or passages of the source.

Key:
[1] = Inflammation and morbidity in DSS-treated mice infected with LF82; format: in vivo, mice (C57BL/6); conditions: AG or tungstate in water, NAC in chow
Description: The development of intestinal inflammation can be followed as described below. The severity of inflammatory changes in the cecum and the colon are assessed by several independent approaches at three, five and seven days after inoculation. First, the relative transcript levels of genes encoding neutrophil chemoattractants (i.e., genes encoding the CXC-chemokines Kc and the Mip2) and iNOS (Nos2) are determined (see, e.g., 62, 64). Second, to monitor, on the protein level, how inflammatory markers increase after DSS treatment, expression levels of iNOS and myeloperoxidase (MPO) are analyzed in protein samples extracted from the colonic mucosa by Western blot using anti-iNOS antibodies (Abcam), anti-MPO antibodies (R&D systems), and anti-tubulin as a loading control (64). Third, concentrations of the neutrophil-specific enzyme MPO in fecal pellets are measured by ELISA. This can serve as an indicator for the degree of neutrophil transmigration into the intestinal lumen over time (6, 42). Finally, pathological changes in the colonic mucosa are assessed through standardized, blinded scoring of formalin-fixed, hematoxylin and eosin-stained sections by a veterinary pathologist (64).

[2] = system: nitrate/nitrite; assay: Nitrate/nitrite concentration in the cecal mucus of DSS-treated mice; format: in vivo; conditions: AG in drinking water
Text: Bars represent geometric means±standard error. *, P<0.05; **, P<0.01.
To determine whether the availability of nitrate increases during DSS colitis, the concentration of nitrate/nitrite in the colonic mucus of mock-treated and DSS-treated mice was examined. […] The results supported the idea that the inflammatory host response generates respiratory electron acceptors in the large bowel.
(§1) Since the fitness advantage conferred by nitrate respiration was abrogated in Nos2-deficent mice (FIG. 2), the ability of inhibiting nitrate respiration in vivo was tested by supplementing the drinking water of mice with the iNOS inhibitor aminoguanidine (AG).

[3] = system: E. coli Nissle 1917 and narG napA narZ mutant; assay: Competitive infection of DSS-treated mice with E. coli Nissle 1917 and its nitrate respiration-deficient mutant; format: in vivo; conditions: AG in drinking water, five days after infection
Description: Mice were mock-treated or treated with dextran sulfate sodium (DSS) or DSS+aminoguanidine (AG) and infected with equal mixtures of the indicated E. coli strains. Five days after infection, the ratio of wild-type (wt) and mutant recovered from colon contents was determined (competitive index). Bars represent geometric means±standard error.
Next, mock-treated mice (C57BL/6) or mice with DSS-induced colitis were inoculated with an equal mixture of E. coli Nissle 1917 and its isogenic nitrate respiration-deficient mutant (competitive infection design). Wild type and nitrate respiration-deficient mutant strains colonized the intestine of normal mice poorly, but similar numbers of each strain were recovered from colon contents (FIG. 2). […] Thus, nitrate respiration enhanced the fitness of E. coli in the inflamed gut.
as §1

[4] = system: neutrophils; conditions: in vitro; cited from earlier work
[5] = system: neutrophils; conditions: in vivo; cited from earlier work
[6] = system: Kc; assay: Kc transcript levels in the cecal mucosa of DSS-treated germ-free mice; format: in vivo; conditions: 1% DSS, 5 days after the beginning of DSS treatment
Description: (§2) (13A-C) Conventional mice received 4% DSS alone (DSS) or in combination with sodium tungstate (DSS+Na2WO4) for 9 days. (13D) Germ-free mice received 1% DSS or 1% DSS+Na2WO4 for five days. (13A) Average histopathology score from the cecum.
The key experiment to distinguish between these two possibilities is to test whether tungstate treatment reduces inflammation in germ-free mice. To this end, groups of four germ-free mice were treated with 1% DSS, 1% DSS+sodium tungstate, or drinking water without supplementation.

[7] = Histopathology score of the cecum in DSS-treated conventional mice; format: in vivo; conditions: 4% DSS for 9 days, blinded scoring
Text: as §2
(§3) This reduction was remarkable, because DSS treatment induces cecal inflammation by a mechanism that is only partially dependent on the presence of microbiota (10). In other words, DSS treatment causes inflammation in germ-free mice, but inflammation is exacerbated by the presence of microbiota. Thus, by inhibiting the microbiota-dependent component of inflammation, one can only expect to achieve a reduction in inflammation, but not a resolution of inflammation. Thus, given the marked pathology observed in DSS-treated germ-free mice (10), the reduction of cecal pathology after tungsten treatment was remarkable.

[8] = oral, 100 mg twice a day for 6 weeks, cited from earlier work
[9] = system: Kc; assay: Kc transcript levels in the cecal mucosa of DSS-treated conventional mice (real-time PCR); format: in vivo; conditions: 4% DSS for 9 days
Text: as §2, §3

[10] = Body weight in the DSS-colitis model; format: in vivo, C57BL/6 mice; conditions: 3% DSS, tungstate 0.2% in drinking water, after 8 days of DSS treatment
Text: To determine whether the administration of soluble tungsten (W) salts can abolish anaerobic respiration and thus blunt the bloom of Enterobacteriaceae in vivo, a murine model of chemically-induced colitis, the dextran sulfate sodium (DSS) colitis model, was employed. Oral administration of DSS in the drinking water induces a vigorous intestinal inflammatory response that is accompanied by a bloom of commensal Enterobacteriaceae (3). Groups of C57BL/6 mice received DSS-supplemented (2 or 3%) drinking water or received DSS-supplemented (2 or 3%) drinking water with sodium tungstate (0.2%) added. After onset of inflammation (4 days after start of the treatment), mice were intragastrically inoculated with a 1:1 mixture of the E. coli Nissle 1917 wild-type and an isogenic moaA mutant deficient for molybdopterin cofactor biosynthesis. Utilization of these non-pathogenic indicator strains allows a determination of the growth advantage conferred through anaerobic respiration by comparing colonization with the wild-type strain with an anaerobic respiration-deficient mutant (moaA mutant) (3). 5 days after inoculation of mice, animals were euthanized and colonization with the E. coli indicator strains determined by cultivation on selective media (each of the strains is marked with a different antibiotic resistance gene) (FIG. 10). […]

[11] = system: Tnfa; assay: Tnfa transcript levels in the cecal mucosa of DSS-treated mice (real-time PCR); format: in vivo; conditions: conventional mice, 4% DSS for 9 days
Text: as §2, §3

[12] = system: E. coli Nissle 1917 wild-type and moaA mutant; assay: DSS colitis model, colonization with E. coli indicator strains (wild-type and moaA mutant, 1:1); format: in vivo
Text: To determine whether the administration of soluble tungsten (W) salts can abolish anaerobic respiration and thus blunt the bloom of Enterobacteriaceae in vivo, a murine model of chemically-induced colitis, the dextran sulfate sodium (DSS) colitis model, was employed. Oral administration of DSS in the drinking water induces a vigorous intestinal inflammatory response that is accompanied by a bloom of commensal Enterobacteriaceae (3). Groups of C57BL/6 mice received DSS-supplemented (2 or 3%) drinking water or received DSS-supplemented (2 or 3%) drinking water with sodium tungstate (0.2%) added. After onset of inflammation (4 days after start of the treatment), mice were intragastrically inoculated with a 1:1 mixture of the E. coli Nissle 1917 wild-type and an isogenic moaA mutant deficient for molybdopterin cofactor biosynthesis. Utilization of these non-pathogenic indicator strains allows a determination of the growth advantage conferred through anaerobic respiration by comparing colonization with the wild-type strain with an anaerobic respiration-deficient mutant (moaA mutant) (3). 5 days after inoculation of mice, animals were euthanized and colonization with the E. coli indicator strains determined by cultivation on selective media (each of the strains is marked with a different antibiotic resistance gene) (FIG. 10).
To further test the efficacy of tungstate treatment, E. coli indicator strains that were either proficient for anaerobic respiration (E. coli Nissle 1917 wild-type) or deficient for nitrate respiration, DMSO respiration, and TMAO respiration due to a mutation in one of the molybdopterin cofactor biosynthesis genes (E. coli Nissle 1917 moaA mutant) were used. Groups of mice with DSS-induced colitis were inoculated with an equal mixture of both E. coli indicator strains (i.e., wild-type and moaA mutant) and received either regular water (vehicle control) or drinking water containing 2 g/l sodium tungstate (Na2WO4×2H2O; Sigma-Aldrich, St. Louis, Mo., USA) to receive a calculated average dose of 130 mg/kg/day (assuming 2.6 ml of water intake per day for each animal). These experiments determined whether anaerobic respiration would provide a fitness advantage upon the E. coli wild-type over the moaA mutant in the inflamed intestine of DSS-treated mice. Furthermore, if tungstate treatment would inhibit anaerobic respiration, these experiments determined whether this fitness advantage would be eliminated and both strains would be recovered at a 1:1 ratio. In other words, the use of E. coli indicator strains as described herein enabled the determination of whether tungstate treatment would block growth by anaerobic respiration in vivo.

[13] = system: nitrate reductase; assay: Nitrate reductase activity in E. coli Nissle 1917 cultures (modified Griess assay); format: cell-based; conditions: LB broth with 40 mM nitrate, microaerobic, 3 h at 37° C.; versus mock-treated cultures
Text: In E. coli, the respiratory reductases for nitrate, DMSO and TMAO as well as the formate dehydrogenases FdnG and FdoG contain molybdenum (Mo) as a key catalyst for electron transfer reactions (7). The functions of FdnG and FdoG are linked to respiration, because these two formate dehydrogenases couple respiratory electron acceptors to the electron donor formate, a fermentation end product present in the large intestine. Formate dehydrogenases and respiratory reductases contain Mo within a molybdopterin cofactor. Tungsten (W) has chemical properties similar, but not identical, to Mo. […] To test whether the addition of W (as the soluble sodium salt Na2WO4; sodium tungstate) to bacterial growth media can inhibit anaerobic nitrate respiration, aliquots of LB broth supplemented with 40 mM nitrate and varying concentrations of tungstate were inoculated with the E. coli Nissle 1917 wild-type strain and incubated under microaerobic conditions for 3 h at 37° C. (3). Nitrate reductase activity was assayed using a modified Griess assay (9) (FIG. 9).

[14] = system: AIEC strain LF82; conditions: DSS-treated mice infected with LF82, tungstate in water
Description: Groups of 6 DSS-treated mice (C57BL/6) were provided with water or water supplemented with AG or tungstate and fed regular chow or chow supplemented with NAC. Mice were then inoculated with wild-type LF82 or sterile medium (mock-infection) and organs were collected at three, five and seven days after infection.
In addition, colony forming units (CFU) of E. coli are determined by spreading homogenates of colon contents on plates containing the appropriate antibiotics (all LF82 derivatives are marked with a kanamycin resistance cassette inserted downstream of the lac operon).

[15] = system: facultative anaerobic bacteria; assay: Microbial community profiling in mouse colitis models (16S rRNA gene sequences); format: in vivo; conditions: mice with severe colitis (DSS or oxazolone) treated with tungstate
Text: To investigate whether changes in the microbial communities that develop during inflammation are due to anaerobic respiration, the temporal dynamics of the entire gut community can be monitored in mouse models of colitis. In particular, colitis can be induced by DSS treatment or hapten-induced (oxazolone-treatment) in wild type and Nos2-deficient mice, including those that are additionally exposed to tungstate, AG, or NAC. The experiments can be performed as follows.
Wild type mice (C57BL/6) and Nos2-deficient mice are co-housed for two weeks to reduce the variation in the microbial community structure prior to inducing inflammation. Feces are collected from all animals for DNA isolation to establish a baseline of the microbiota composition at the beginning of the experiment. Six mice from each mouse strain (C57BL/6 mice or Nos2-deficient mice) are euthanized to isolate bacterial DNA from cecal and colon contents and to establish a baseline for inflammatory host responses using the methods described above (see, Section 5). Groups of mice from each mouse strain (e.g., C57BL/6 mice or Nos2-deficient mice) are treated with 4% DSS in drinking water or are “mock-treated” (i.e., mice will receive drinking water without DSS). […]
The development of intestinal inflammation is monitored using methods described above (see, Section 5). […]

[16] = sodium tungstate 0.2% in drinking water, DSS 2 or 3%, 5 days after inoculation

SMILES | inflammation and morbidity [1] | availability of nitrate/nitrite in the large bowel [2] | fitness advantage conferred by nitrate respiration (competitive index) [3] | concentration that almost completely inhibits the oxidative response of neutrophils to E. coli [4] [mM] | oxidative burst activity of neutrophils [5] | levels of pro-inflammatory cytokines (Kc transcript) [6] | overall pathology score of the cecal mucosa [7] | body weight ([8]; human obesity) | safety parameters ([8]; human) | induction of Kc in the cecal mucosa [9] | body weight [10] | transcript levels of Tnfa in the cecal mucosa [11] | absolute numbers of E. coli recovered from colon contents (bloom) ([12]; DSS+Na2WO4 versus DSS alone, FIG. 12B) | competitive index (ratio of wild-type to moaA mutant) recovered from colon contents ([12]; DSS-induced colitis, drinking water with 2 g/l sodium tungstate (130 mg/kg/day)) | recovery of wild-type versus moaA mutant from colon content [12, 16] | total number of E. coli indicator strains recovered from colon content [12, 16] | tungstate concentration at which nitrate reductase activity was significantly reduced [13] | growth of AIEC by anaerobic respiration [14] | increased abundance of facultative anaerobic bacteria associated with inflammation [15]
N=C(N)NN [AG, aminoguanidine] | intermediate effect | markedly reduced | abrogated the fitness advantage | – | – | – | – | – | – | – | – | – | – | – | – | – | – | – | –
CC(=O)N[C@@H](CS)C(=O)O [NAC, N-acetylcysteine] | intermediate effect | – | – | 76 | suppress the oxidative burst activity | – | – | – | – | – | – | – | – | – | – | – | – | – | –
[Na+].[Na+].[O]=[W](=[O])([O-])[O-] [sodium tungstate] | reducing inflammation and morbidity | – | – | – | – | did not reduce | significant (P<0.05) reduction | did not reduce body weight | not associated with abnormal safety parameters | abrogated induction | > 90 % of starting weight | blunting of transcript levels | prevented facultative anaerobic bacteria from blooming | both strains were recovered in equal numbers | both strains were recovered at similar numbers | significantly diminished | exceeding 10 ng/ml | reduction in the growth of AIEC | not observed
